Source: US10047069B2, “Compositions comprising an inhibitor of lysine specific demethylase-1” (Celgene Quanticel Research, Inc., priority 2015, dated 2018)
Values after ≈ are worked out from the molar mass of the structure shown.

How the values were obtained:
Format in all cases: physicochemical
[1] = Thermal stability from onset of DSC events; conditions: onsets of DSC events greater than 200° C.
Protocol: DSC data were collected on a Mettler DSC 823E equipped with a 34 position auto-sampler. The instrument was calibrated for energy and temperature using certified indium. Typically, 0.9-6 mg of each sample, in a pin-holed aluminum pan, was heated at 10° C./min from 25° C. to 350° C. A nitrogen purge at 50 ml/min was maintained over the sample. The instrument control and data analysis software was STARe v12.1.
The twenty remaining forms have thermal events occurring from as low as ˜30° C. These may be solvated/hydrated forms.

[2] = Thermodynamic solubility in FeSSIF; conditions: for Solubility in FeSSiF: fed state simulated intestinal fluid (FeSSIF), equilibrated at 25° C. for 24 hours; for XRPD of residue: residue of the FeSSIF solubility test, analysed by XRPD as a damp solid
Protocol: Solubility was determined by suspending sufficient compound in fed state simulated intestinal fluid (FeSSIF) to give a maximum final concentration of >3 mg/ml of the parent free-form of the compound. The suspension was equilibrated at 25° C. for 24 hours then the pH was measured. The suspension was then filtered through a glass fibre C filter. The residue was analysed by XRPD as a damp solid. The filtrate was diluted by an appropriate factor prior to analysis by HPLC. Quantitation by HPLC was performed with reference to a standard solution of approximately 0.2 mg/ml in DMSO. Different volumes of the standard, diluted and undiluted sample solutions were injected. The solubility was calculated using the peak areas determined by integration of the peak found at the same retention time as the principal peak in the standard injection. Analysis was performed on an Agilent HP1100 series system equipped with a diode array detector and using ChemStation software vB.04.03.

[3] = Stability post-storage at 40° C./75% RH assessed by XRPD; conditions: form change assessed by XRPD
Protocol: (§1) Representative samples for the twenty-six forms were further analysed by NMR/IC and DSC. The stability of the samples after storage at 40° C./75% RH was also assessed by XRPD. Solubility in FeSSIF media was determined for selected samples. […] IC was employed to determine the molar equivalence for inorganic counterions, sulphate and phosphate.

[4] = Salt screen assessment compared to the HCl salt
Protocol: as §1

| Compound | Stability post-storage at 40° C./75% RH [3] | also measured |
| --- | --- | --- |
| COc1ccc(-c2c(-c3ccc(C#N)c(F)c3)nc(N3CCC(N)CC3)n(C)c2=O)cc1F [BA 1, 4-[2-(4-aminopiperidin-1-yl)-5-(3-fluoro-4-methoxyphenyl)-1-methyl-6-oxo-1,6-dihydropyrimidin-4-yl]-2-fluorobenzonitrile] | No significant | thermal stability [1]: good thermal stability; Solubility in FeSSiF [2]: 880 µg/mL (≈ 1950 µM); XRPD of residue [2]: Poor crystallinity; stability and solubility when compared to the HCl salt [4]: improved stability and solubility |
| COc1ccc(-c2c(-c3ccc(C#N)c(F)c3)nc(N3CCC(N)CC3)n(C)c2=O)cc1F [BA 2, 4-[2-(4-aminopiperidin-1-yl)-5-(3-fluoro-4-methoxyphenyl)-1-methyl-6-oxo-1,6-dihydropyrimidin-4-yl]-2-fluorobenzonitrile] | No significant |  |
| COc1ccc(-c2c(-c3ccc(C#N)c(F)c3)nc(N3CCC(N)CC3)n(C)c2=O)cc1F [BSA 1, 4-[2-(4-aminopiperidin-1-yl)-5-(3-fluoro-4-methoxyphenyl)-1-methyl-6-oxo-1,6-dihydropyrimidin-4-yl]-2-fluorobenzonitrile] | No form change | thermal stability [1]: good thermal stability; Solubility in FeSSiF [2]: 840 µg/mL (≈ 1860 µM); XRPD of residue [2]: BSA 1 - poor; stability and solubility when compared to the HCl salt [4]: improved stability and solubility |
| COc1ccc(-c2c(-c3ccc(C#N)c(F)c3)nc(N3CCC(N)CC3)n(C)c2=O)cc1F [BSA 2, 4-[2-(4-aminopiperidin-1-yl)-5-(3-fluoro-4-methoxyphenyl)-1-methyl-6-oxo-1,6-dihydropyrimidin-4-yl]-2-fluorobenzonitrile] | Extra peaks observed |  |
| COc1ccc(-c2c(-c3ccc(C#N)c(F)c3)nc(N3CCC(N)CC3)n(C)c2=O)cc1F [CA 1, 4-[2-(4-aminopiperidin-1-yl)-5-(3-fluoro-4-methoxyphenyl)-1-methyl-6-oxo-1,6-dihydropyrimidin-4-yl]-2-fluorobenzonitrile] | Pattern change |  |
| COc1ccc(-c2c(-c3ccc(C#N)c(F)c3)nc(N3CCC(N)CC3)n(C)c2=O)cc1F [CA 2, 4-[2-(4-aminopiperidin-1-yl)-5-(3-fluoro-4-methoxyphenyl)-1-methyl-6-oxo-1,6-dihydropyrimidin-4-yl]-2-fluorobenzonitrile] | No form change |  |
| COc1ccc(-c2c(-c3ccc(C#N)c(F)c3)nc(N3CCC(N)CC3)n(C)c2=O)cc1F [FUA 1, 4-[2-(4-aminopiperidin-1-yl)-5-(3-fluoro-4-methoxyphenyl)-1-methyl-6-oxo-1,6-dihydropyrimidin-4-yl]-2-fluorobenzonitrile] | Pattern change |  |
| COc1ccc(-c2c(-c3ccc(C#N)c(F)c3)nc(N3CCC(N)CC3)n(C)c2=O)cc1F [FUA 2, 4-[2-(4-aminopiperidin-1-yl)-5-(3-fluoro-4-methoxyphenyl)-1-methyl-6-oxo-1,6-dihydropyrimidin-4-yl]-2-fluorobenzonitrile] | Increased |  |
| COc1ccc(-c2c(-c3ccc(C#N)c(F)c3)nc(N3CCC(N)CC3)n(C)c2=O)cc1F [FUA 3, 4-[2-(4-aminopiperidin-1-yl)-5-(3-fluoro-4-methoxyphenyl)-1-methyl-6-oxo-1,6-dihydropyrimidin-4-yl]-2-fluorobenzonitrile] | Pattern change |  |
| COc1ccc(-c2c(-c3ccc(C#N)c(F)c3)nc(N3CCC(N)CC3)n(C)c2=O)cc1F [MA 1, 4-[2-(4-aminopiperidin-1-yl)-5-(3-fluoro-4-methoxyphenyl)-1-methyl-6-oxo-1,6-dihydropyrimidin-4-yl]-2-fluorobenzonitrile] | Amorphous | Solubility in FeSSiF [2]: 630 µg/mL (≈ 1400 µM); XRPD of residue [2]: Amorphous |
| COc1ccc(-c2c(-c3ccc(C#N)c(F)c3)nc(N3CCC(N)CC3)n(C)c2=O)cc1F [MA 2, 4-[2-(4-aminopiperidin-1-yl)-5-(3-fluoro-4-methoxyphenyl)-1-methyl-6-oxo-1,6-dihydropyrimidin-4-yl]-2-fluorobenzonitrile] | Pattern change |  |
| COc1ccc(-c2c(-c3ccc(C#N)c(F)c3)nc(N3CCC(N)CC3)n(C)c2=O)cc1F [MA 3, 4-[2-(4-aminopiperidin-1-yl)-5-(3-fluoro-4-methoxyphenyl)-1-methyl-6-oxo-1,6-dihydropyrimidin-4-yl]-2-fluorobenzonitrile] | Pattern change |  |
| COc1ccc(-c2c(-c3ccc(C#N)c(F)c3)nc(N3CCC(N)CC3)n(C)c2=O)cc1F [MLNA 1, 4-[2-(4-aminopiperidin-1-yl)-5-(3-fluoro-4-methoxyphenyl)-1-methyl-6-oxo-1,6-dihydropyrimidin-4-yl]-2-fluorobenzonitrile] | Pattern change |  |
| COc1ccc(-c2c(-c3ccc(C#N)c(F)c3)nc(N3CCC(N)CC3)n(C)c2=O)cc1F [MLNA 2, 4-[2-(4-aminopiperidin-1-yl)-5-(3-fluoro-4-methoxyphenyl)-1-methyl-6-oxo-1,6-dihydropyrimidin-4-yl]-2-fluorobenzonitrile] | Pattern change |  |
| COc1ccc(-c2c(-c3ccc(C#N)c(F)c3)nc(N3CCC(N)CC3)n(C)c2=O)cc1F [MSA 1, 4-[2-(4-aminopiperidin-1-yl)-5-(3-fluoro-4-methoxyphenyl)-1-methyl-6-oxo-1,6-dihydropyrimidin-4-yl]-2-fluorobenzonitrile] | No form change | thermal stability [1]: good thermal stability; Solubility in FeSSiF [2]: 1010 µg/mL (≈ 2240 µM); XRPD of residue [2]: Largely amorphous; stability and solubility when compared to the HCl salt [4]: improved stability and solubility |
| COc1ccc(-c2c(-c3ccc(C#N)c(F)c3)nc(N3CCC(N)CC3)n(C)c2=O)cc1F [MSA 2, 4-[2-(4-aminopiperidin-1-yl)-5-(3-fluoro-4-methoxyphenyl)-1-methyl-6-oxo-1,6-dihydropyrimidin-4-yl]-2-fluorobenzonitrile] | Extra peaks observed |  |
| COc1ccc(-c2c(-c3ccc(C#N)c(F)c3)nc(N3CCC(N)CC3)n(C)c2=O)cc1F [PHOA 2, 4-[2-(4-aminopiperidin-1-yl)-5-(3-fluoro-4-methoxyphenyl)-1-methyl-6-oxo-1,6-dihydropyrimidin-4-yl]-2-fluorobenzonitrile] | Pattern change |  |
| COc1ccc(-c2c(-c3ccc(C#N)c(F)c3)nc(N3CCC(N)CC3)n(C)c2=O)cc1F [PHOA 3, 4-[2-(4-aminopiperidin-1-yl)-5-(3-fluoro-4-methoxyphenyl)-1-methyl-6-oxo-1,6-dihydropyrimidin-4-yl]-2-fluorobenzonitrile] | Reduced crystallinity |  |
| COc1ccc(-c2c(-c3ccc(C#N)c(F)c3)nc(N3CCC(N)CC3)n(C)c2=O)cc1F [SUCA 1, 4-[2-(4-aminopiperidin-1-yl)-5-(3-fluoro-4-methoxyphenyl)-1-methyl-6-oxo-1,6-dihydropyrimidin-4-yl]-2-fluorobenzonitrile] |  | Solubility in FeSSiF [2]: 960 µg/mL (≈ 2130 µM); XRPD of residue [2]: Amorphous |
| COc1ccc(-c2c(-c3ccc(C#N)c(F)c3)nc(N3CCC(N)CC3)n(C)c2=O)cc1F [SUCA 2, 4-[2-(4-aminopiperidin-1-yl)-5-(3-fluoro-4-methoxyphenyl)-1-methyl-6-oxo-1,6-dihydropyrimidin-4-yl]-2-fluorobenzonitrile] | Pattern change |  |
| COc1ccc(-c2c(-c3ccc(C#N)c(F)c3)nc(N3CCC(N)CC3)n(C)c2=O)cc1F [TAR 1, 4-[2-(4-aminopiperidin-1-yl)-5-(3-fluoro-4-methoxyphenyl)-1-methyl-6-oxo-1,6-dihydropyrimidin-4-yl]-2-fluorobenzonitrile] | Pattern change |  |
| COc1ccc(-c2c(-c3ccc(C#N)c(F)c3)nc(N3CCC(N)CC3)n(C)c2=O)cc1F [free base, 4-[2-(4-aminopiperidin-1-yl)-5-(3-fluoro-4-methoxyphenyl)-1-methyl-6-oxo-1,6-dihydropyrimidin-4-yl]-2-fluorobenzonitrile] |  | Solubility in FeSSiF [2]: 280 µg/mL (≈ 620 µM) |
| COc1ccc(-c2c(-c3ccc(C#N)c(F)c3)nc(N3CCC(N)CC3)n(C)c2=O)cc1F [pTSA 2, 4-[2-(4-aminopiperidin-1-yl)-5-(3-fluoro-4-methoxyphenyl)-1-methyl-6-oxo-1,6-dihydropyrimidin-4-yl]-2-fluorobenzonitrile] | Slight change in pattern |  |
